Patent US20240226211A9, “SEAWEED EXTRACTS, ISOLATED COMPOUNDS, AND METHODS OF TREATMENT” (University of Florida Research Foundation, Incorporated, priority 2017, published 2024)

Columns and labels:
[1] = tested on: ARE-driven genes (GCLC, Gclm, TXNRD1, GSTA4, HMOX1); assay: qPCR of ARE-driven genes in IMR-32 cells; type: cell-based, human
Experimental: The RNeasy Mini Kit (Qiagen) was used to collect total RNA from cells, while for mouse tissue, TRIzol reagent (Invitrogen) was used. In each case, total RNAs (2 μg) were reverse-transcribed into cDNAs, which were used as templates for TaqMan gene expression assay (Applied Biosystems) and detected using the 7300 Real-Time PCR System (Applied Biosystems). Each qPCR sample was tested in triplicate as a 25 μL total reaction volume (12.5 μL of Taqman 2× universal master mix, 1.25 μL of a 20× TaqMan gene expression assay probe, 1 μL of the above cDNA, and 10.25 μL of RNase-free sterile water). The qPCR method was designed as following: 50° C. for 2 min, 95° C. for 10 min, and 40 cycles of 95° C. for 15 s and 60° C. for 1 min. Endogenous controls used included GAPDH for IMR-32 cells and β-actin to normalize for RAW264.7 cells and mouse tissues.

[2] = tested on: PGE2 production in RAW264.7 cells; assay: PGE2 assay in RAW264.7 cells; type: cell-based, mouse; conditions: RAW264.7, IFN-γ
Experimental: RAW264.7 cells were seeded into a 96 well format at 4×10^4 cells/well and incubated overnight at 37° C. Cells were treated with a solvent control (DMSO, 1%, v/v) or serial dilutions of isolated compounds or extracts for 1 h before the addition of IFN-γ (10 ng/mL). […] The experiment was performed using the standard manufacturer's protocol.

[3] = tested on: Bacillus cereus; assay: Preliminary antibacterial testing; type: cell-based
[4] = tested on: NQO1; assay: Immunoblot of NQO1 after NAC pre-treatment in IMR-32 cells; type: cell-based, human; conditions: pre-treated with N-acetylcysteine
Experimental: IMR-32 cells were seeded into 6-well plates (7×10^5 cells/well) and incubated at 37° C. for 24 h. The cells were then treated with a solvent control (DMSO, 1%, v/v), isolated compounds, or extracts. After 24 h, cells were lysed in 200 μL of PhosphoSafe buffer (Novagen). Protein concentrations were measured by using a BCA assay kit (Pierce). Equal amounts of total protein were separated using SDS-PAGE (NuPAGE® Novex® 4-12% Bis-Tris Mini gels, Invitrogen) and transferred onto a PVDF membrane. Membranes were blocked overnight with 5% BSA at 4° C. and incubated with indicated primary antibodies for 2 h at room temperature. After washing, the membranes were then incubated with the corresponding secondary antibodies (HRP-linked) for 1 h at room temperature and detected with Supersignal Femto Western Blotting kit (Pierce). For assays in the presence of N-acetylcysteine (NAC), the cells were pretreated with the antioxidant (NAC at 1 mM) for 2 h prior to treatment with the solvent control, isolated compounds, or extracts.

[5] = tested on: Nqo1; assay: Nqo1 activity assay in MEFs; type: cell-based, murine
Experimental: Wild-type (8×10^3 cells/well), Nrf2−/− (8×10^3 cells/well), and Keap1−/− (4×10^3 cells/well) MEFs were seeded into a 96-well format and incubated overnight at 37° C. Cells were treated with a solvent control (DMSO, 1%, v/v) or serial dilutions of isolated compounds or extracts for 40 hours.

[6] = tested on: neutrophil migration to cut site, Tg(mpx::GFP) zebrafish; assay: Zebrafish in vivo neutrophil migration assay; set-up: species or system Danio rerio; conditions: relative to DMSO vehicle control
Experimental: Tg(mpx::GFP)^ill4 transgenic zebrafish larvae (6 dpf) were pre-treated in duplicate with a solvent control ((DMSO, 1%, v/v) or serial dilutions of the compound or extract in 12-well plate format with five larvae per well containing 1 mL E2 medium containing 1 mM Tris pH 7.4. After 3 hours, larvae were anesthetised with Tricaine and tailfins were amputated using sharp blades to induce the migration of neutrophils. The larvae were then placed into fresh wells to be post-treated for an additional 3 hours. A fluorescence stereomicroscope was used to count the number of neutrophils that migrated to the site of injury. The assay was performed in triplicate to determine statistical significance.
For in vivo evaluation, a previously reported neutrophil migration assay in the model organism, Danio rerio, was used [Wang X, et al. (2014) Inhibitors of neutrophil recruitment identified using transgenic zebrafish to screen a natural product library. Dis Model Mech 7(1):163-169]. […] The fish were then quickly transferred into fresh media containing the treatments for an additional 3 h before the GFP-tagged neutrophils were counted under the fluorescent microscope. […]

## CC(C)=CCC/C(C)=C/Cc1cc(O)c(Br)cc1O [Compound 1, (E)-2-bromo-5-(3,7-dimethylocta-2,6-dien-1-yl)benzene-1,4-diol]
[1]
  transcription of a series of ARE-driven genes: induce the transcription of a series of ARE-driven genes
[2]
  production of pro-inflammatory PGE2: effectively reduced the production
[3]
  antibacterial activity: inhibited
[4]
  translation of NQO1 after NAC pre-treatment: still able to induce the translation of NQO1
[5]; each MEF cell type relative to DMSO control
  Nqo1 enzymatic activity: induce Nqo1 enzymatic activity in a dose-dependent manner
[5]; high concentrations
  relative Nqo1 activity, wild-type versus knockout MEFs: more so in wild-type than in Nrf2 and Keap1 knockout MEFs
[6]
  number of neutrophils at the cut site: decrease of neutrophils
